Results taken from US5063208A, “Peptidyl aminodiol renin inhibitors” (Abbott Laboratories, priority 1990, dated 1991).

Biological target: T1, human renal renin (Homo sapiens, UniProt P00797)
T1 construct: human renal renin, free from acid proteolytic activity; from tissue
T1 sequence (P00797 67-406): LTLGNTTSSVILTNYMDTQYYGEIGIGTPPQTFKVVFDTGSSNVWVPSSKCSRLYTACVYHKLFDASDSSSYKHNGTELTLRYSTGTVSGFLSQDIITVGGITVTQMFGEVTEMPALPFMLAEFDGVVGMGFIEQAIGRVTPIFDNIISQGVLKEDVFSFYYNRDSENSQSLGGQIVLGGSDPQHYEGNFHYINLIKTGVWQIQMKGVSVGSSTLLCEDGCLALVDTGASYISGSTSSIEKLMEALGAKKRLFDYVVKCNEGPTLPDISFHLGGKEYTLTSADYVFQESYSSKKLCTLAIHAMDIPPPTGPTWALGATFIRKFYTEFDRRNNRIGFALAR
Assay: Inhibition of human renal renin in vitro (angiotensin I formed measured by radioimmunoassay)
Format: biochemical
Settings: human renal renin free from acid proteolytic activity, renin substrate human angiotensinogen, 37 degrees C, pH 6.0; read-out: IC50 (molar concentration required to cause 50% inhibition)
Description: The compounds of the invention are also useful for treating congestive heart failure in a mammal. […] At the end of the incubation, the amount of angiotensin I formed is measured by radioimmunoassay and the molar concentration required to cause 50% inhibition, expressed as the IC50, is calculated.

IC50	Compound
0.25 nM	CC[C@H](O)[C@H](O)[C@H](CC1CCCCC1)NC(=O)[C@H](Cc1cscn1)NC(=O)[C@@H](CC(=O)N(C)CCn1cccn1)Cc1ccccc1 [Example 112, (2R)-2-Benzyl-3-[(2-pyrazol-1-ylethyl)methylaminocarbonyl]propionyl-L-(4-Thiazolyl)Ala Amide of (2S,3R,4S)-2-Amino-1-cyclohexyl-3,4-dihydroxyhexane]
1.8 nM	CON(C)C[C@@H](Cc1ccccc1)C(=O)N[C@@H](Cc1cscn1)C(=O)N[C@@H](CC1CCCCC1)[C@@H](O)[C@@H](O)CC(C)C [Example 100, (2R)-2-Benzyl-3-(N-methoxy-N-methylamino)propionyl-L-(4-thiazolyl)Ala Amide of (2S,3R,4S)-2-Amino-1-cyclohexyl-3,4-dihydroxy-6-methylheptane]
